Laboratory results taken from paper PMC7832401, “Antimycobacterial, Cytotoxic, and Antioxidant Activities of Abietane Diterpenoids Isolated from Plectranthus madagascariensis” (Plants, 2021).
“And” between values parts separate entries of the source, which are not always exact repeats. Equal values may be shown once. Read-outs that look alike come from different tables or passages of the source.

Legend:
[1] = system: Mtb H37Rv pMSp12::GFP bioreporter strain; assay: microbe, parasite or virus in culture; format: cell-based, Mycobacterium tuberculosis; details: for MIC90: Mycobacterium tuberculosis, H37RV; for ADC MIC increase: may be due to serum binding
[2] = TEAC (Trolox Equivalent Absorbance Capacity) assay; details: for TEAC: μM Trolox equivalents per gram, mean ± SD
Procedure: The TEAC assay was done according to the method developed by Pellegrini et al., which consists of determining the activities of the isolated compounds in terms of μM Trolox equivalents per gram dry weight (μM TE/g) of the test samples. Trolox was used as the standard with concentrations ranging from 0–500 μM. The absorbance was recorded by a Multiskan spectrometer plate reader at wavelength 734 nm. The antioxidant epigallocatechin gallate (EGCG) was used as a positive control.

[3] = FRAP (Ferric Ion Reducing Antioxidant Power) assay; details: for FRAP: μM ascorbic acid equivalents per gram, mean ± SD
Procedure: The FRAP assay was conducted according to Benzie and Strain’s method, which consists of finding the compounds’ antioxidant potential in terms of μM ascorbic acid equivalents per gram dry weight (μM AAE/g). L-Ascorbic acid was used as a standard in the FRAP assay with concentrations varying between 0 and 1000 μM. The antioxidant potential of the tested samples was read at a wavelength of 593 nm in a Multiskan (Thermo Fisher Scientific, Waltham, MA, USA) spectrum plate reader.

[4] = ORAC (Oxygen Radical Absorbance Capacity) assay; details: for ORAC: μM Trolox equivalents per gram, mean ± SD
Procedure: The ORAC assay was conducted according to Prior et al.’s method, which is a modified version of the original ORAC assay developed by Cao and Prior [26]. In this assay, 2,2′-azobis(2-amidinopropane) dihydrochloride (AAPH) underwent thermal decomposition to generate peroxyl radicals, resulting in a reduction in fluorescence from fluorescein. The antioxidant potential of the isolated compounds was measured by their ability to prevent any loss in fluorescence from fluorescein by neutralizing peroxyl radicals and assessing the sample’s fluorescence area under the curve (AUC). The fluoroskan spectrum plate reader was programmed to record fluorescein’s fluorescence every 2 min after the addition of AAPH with the excitation wavelength at 485 nm and the emission wavelength at 530 nm. The Trolox (TE) stock solution was used as standard with concentration varying between 0 and 417 μM. The ORAC values were calculated using a regression equation (y = mx + c) between Trolox concentration (y in μM) and the net area under the fluorescence decay curve (x). ORAC values were expressed as μM Trolox equivalents (TE) per gram of test samples (μM TE/g). The antioxidant epigallocatechin gallate (EGCG) was used as a positive control.

[5] = In vitro cytotoxicity MTT assay; details: human
HaCaT cells = assay: In vitro cytotoxicity MTT assay; details: HaCaT cells
in vitro = details: human
[6] = 168 h, […], 7 days, 90% inhibition, read-out: MIC90, 7H9/ADC/Glu/Tw, 7 Days
[7] = 168 h, […], 7 days, 90% inhibition, read-out: MIC90, 7H9/CAS/ Glu/Tx, 7 Days
[8] = 168 h, […], 7 days, value in brackets, read-out: MIC90, 7H9/CAS/ Glu/Tx, 7 Days
[9] = 168 h, supplement, […], day 7, read-out: GFP Assay - 10pt DR: MIC90 [Media: 7H9 ADC GLU Tw, Day:7]
[10] = 168 h, supplement, […], day 7, read-out: GFP Assay - 10pt DR: MIC90 [Media: 7H9 CAS GLU Tx, Day:7]
[11] = 336 h, […], 14 days, 90% inhibition, read-out: MIC90, 7H9/ADC/Glu/Tw, 14 Days
[12] = 336 h, […], 14 days, 90% inhibition, read-out: MIC90, 7H9/CAS/ Glu/Tx, 14 Days
[13] = 336 h, […], 14 days, value in brackets, read-out: MIC90, 7H9/CAS/ Glu/Tx, 14 Days
[14] = 336 h, supplement, […], day 14, read-out: GFP Assay - 10pt DR: MIC90 [Media: 7H9 ADC GLU Tw, Day:14]
[15] = 336 h, supplement, […], day 14, read-out: GFP Assay - 10pt DR: MIC90 [Media: 7H9 CAS GLU Tx, Day:14]
[16] = span over compounds, medium and day not stated (abstract), read-out: MIC90 against Mycobacterium tuberculosis H37Rv
[17] = 168 h, […], 7 days, value in brackets, read-out: MIC90, 7H9/ADC/Glu/Tw, 7 Days
[18] = 336 h, […], 14 days, value in brackets, read-out: MIC90, 7H9/ADC/Glu/Tw, 14 Days

CC(C)C1=C(O)C(=O)C2=C(C1=O)[C@H](O)[C@@H](O)C1C(C)(C)CCC[C@]21C (stereo partly drawn) [Compound 1, 6β,7α-dihydroxyroyleanone]
MIC90 [1, 6]: > 125 µg/mL
MIC90 [1, 7]: 62.5 µg/mL
MIC90 [1, 8]: 180 µM
MIC90 [1, 9]: > 125 µg/mL
MIC90 [1, 10]: 62.5 µg/mL
MIC90 [1, 11]: > 125 µg/mL
MIC90 [1, 12]: 60.6 µg/mL
MIC90 [1, 13]: 174 µM
MIC90 [1, 14]: > 125 µg/mL
MIC90 [1, 15]: 60.6 µg/mL
MIC90 [1, 16]: 5.61 to 180 µM
antioxidant activity in TEAC assay (in words) [2]: good antioxidant activities
TEAC [2]: 5080.8 ± 0.04 µM TE/g
antioxidant activity in FRAP assay (in words) [3]: very little activity
FRAP [3]: 541.5 ± 1.59 µM AAE/g
antioxidant activity in ORAC assay (in words) [4]: good antioxidant activities
ORAC [4]: 23,625.0 ± 1.64 µM TE/g
IC50 at 24 h [5]: 60.2 µg/mL and 173 µM

CO[C@H]1/C=C/O[C@@]2(C)Oc3c(C)c(O)c4c(O)c(c(/C=N/N5CCN(C)CC5)c(O)c4c3C2=O)NC(=O)/C(C)=C\C=C\[C@H](C)[C@H](O)[C@@H](C)[C@@H](O)[C@@H](C)[C@H](OC(C)=O)[C@@H]1C [Rifampicin, reference compound]
MIC90 [1, 6]: 0.001 µg/mL
MIC90 [1, 7]: 0.015 µg/mL
MIC90 [1, 17]: 0.001 µM
MIC90 [1, 8]: 0.02 µM
MIC90 [1, 9]: 0.001 µg/mL
MIC90 [1, 10]: 0.013 µg/mL
MIC90 [1, 11]: 0.002 µg/mL
MIC90 [1, 12]: 0.035 µg/mL
MIC90 [1, 18]: 0.002 µM
MIC90 [1, 13]: 0.04 µM
MIC90 [1, 14]: 0.0011 µg/mL
MIC90 [1, 15]: 0.018 µg/mL
GFP Assay - 10pt DR: MIC90 [Media: 7H9 ADC GLU Tw, Day:7] ([1]; supplement, […], day 7): 0.002 µg/mL
GFP Assay - 10pt DR: MIC90 [Media: 7H9 CAS GLU Tx, Day:7] ([1]; supplement, […], day 7): 0.015 µg/mL
GFP Assay - 10pt DR: MIC90 [Media: 7H9 ADC GLU Tw, Day:14] ([1]; supplement, […], day 14): 0.001 µg/mL
GFP Assay - 10pt DR: MIC90 [Media: 7H9 CAS GLU Tx, Day:14] ([1]; supplement, […], day 14): 0.035 µg/mL

O=C(O[C@@H]1Cc2c(O)cc(O)cc2O[C@@H]1c1cc(O)c(O)c(O)c1)c1cc(O)c(O)c(O)c1 [EGCG, epigallocatechin gallate, reference compound]
TEAC [2]: 4722.5 ± 2.22 µM TE/g
FRAP [3]: 10,455.1 ± 0.81 µM AAE/g
ORAC [4]: 14,970.0 ± 5.53 µM TE/g

CC(C)C1=C(O)C(=O)C2=C(C1=O)[C@H](O)C[C@H]1C(C)(C)CCC[C@]21C [Compound 3, horminone]
MIC90 [1, 6]: > 125 µg/mL
MIC90 [1, 7]: 14.3 µg/mL
MIC90 [1, 8]: 43.2 µM
MIC90 [1, 9]: > 125 µg/mL
MIC90 [1, 10]: 14.3 µg/mL
MIC90 [1, 11]: > 125 µg/mL
MIC90 [1, 12]: 3.96 µg/mL
MIC90 [1, 13]: 11.9 µM
MIC90 [1, 14]: > 125 µg/mL
MIC90 [1, 15]: 3.96 µg/mL
MIC90 [1, 16]: 5.61 to 180 µM
ADC MIC increase ([1]; […]): ADC MIC is increased > 4 fold which may be due to serum binding
TEAC [2]: Inactive
FRAP [3]: 296.5 ± 6.72 µM AAE/g
ORAC [4]: 12,443.3 ± 3.61 µM TE/g
IC50 at 24 h [5]: 53.7 µg/mL and 162 µM

CC(=O)OC1C2=C(C(=O)C(O)=C(C(C)C)C2=O)C2(C)CCCC(C)(C)C2C1O (stereo not drawn) [Compound 2, 7α-acetoxy-6β-hydroxyroyleanone]
antimycobacterial activity (in words) [1]: moderate activities
MIC90 [1, 6]: 14.4 µg/mL
MIC90 [1, 7]: 15.2 µg/mL
MIC90 [1, 17]: 36.8 µM
MIC90 [1, 8]: 39 µM
MIC90 [1, 9]: 15 µg/mL
MIC90 [1, 10]: 15.2 µg/mL
MIC90 [1, 11]: 14.6 µg/mL
MIC90 [1, 12]: 15.6 µg/mL
MIC90 [1, 18]: 37.5 µM
MIC90 [1, 13]: 40.1 µM
MIC90 [1, 14]: 33.6 µg/mL
MIC90 [1, 15]: 15.6 µg/mL
MIC90 [1, 16]: 5.61 to 180 µM
antioxidant activity in TEAC assay (in words) [2]: weak antioxidant activities
TEAC [2]: 3700.8 ± 1.50 µM TE/g
antioxidant activity in FRAP assay (in words) [3]: weak antioxidant activities
FRAP [3]: 345.5 ± 0.77 µM AAE/g
antioxidant activity in ORAC assay (in words) [4]: good activity
ORAC [4]: 21,404.1 ± 4.35 µM TE/g
IC50 at 24 h [5]: 42.7 µg/mL and 109 µM

CC(C)c1cc2c(c(O)c1O)[C@@]13CCCC(C)(C)[C@@H]1[C@](O)(OC3)C2=O [Compound 5, carnosolon]
MIC90 [1, 6]: > 125 µg/mL
MIC90 [1, 7]: > 125 µg/mL
MIC90 [1, 9]: > 125 µg/mL
MIC90 [1, 10]: > 125 µg/mL
MIC90 [1, 11]: > 125 µg/mL
MIC90 [1, 12]: > 125 µg/mL
MIC90 [1, 14]: > 125 µg/mL
MIC90 [1, 15]: > 125 µg/mL
MIC90 ([1]; in both media, read-out: MIC90 against Mtb H37Rv): > 125 µg/mL
TEAC [2]: 4876.3 ± 0.49 µM TE/g
FRAP [3]: 13,772.2 ± 2.76 µM AAE/g
ORAC [4]: 29,287.4 ± 4.75 µM TE/g
IC50 at 24 h [5]: 27.5 µg/mL and 79.8 µM
cytotoxic activity against HaCaT cells (in words) (HaCaT cells): good cytotoxic activities

CC(C)C1=C(O)C(=O)C2=C(C(=O)C(O)=C3C(C)(C)CCC[C@]23C)C1=O [Compound 4, coleon U quinone]
MIC90 [1, 6]: > 125 µg/mL
MIC90 [1, 7]: 15.6 µg/mL
MIC90 [1, 8]: 45.4 µM
MIC90 [1, 9]: > 125 µg/mL
MIC90 [1, 10]: 15.6 µg/mL
MIC90 [1, 11]: > 125 µg/mL
MIC90 [1, 12]: 1.93 µg/mL
MIC90 [1, 13]: 5.61 µM
MIC90 [1, 14]: > 125 µg/mL
MIC90 [1, 15]: 1.94 µg/mL
MIC90 [1, 16]: 5.61 to 180 µM
ADC MIC increase ([1]; […]): ADC MIC is increased > 4 fold which may be due to serum binding
antioxidant activity in TEAC assay (in words) [2]: weak antioxidant activities
TEAC [2]: 225.5 ± 1.47 µM TE/g
antioxidant activity in FRAP assay (in words) [3]: weak antioxidant activities
FRAP [3]: 2109.6 ± 2.78 µM AAE/g
antioxidant activity in ORAC assay (in words) [4]: good activity
ORAC [4]: 21,857.8 ± 5.85 µM TE/g
IC50 at 24 h [5]: 33.9 µg/mL and 98.5 µM
cytotoxic activity against HaCaT cells (in words) (HaCaT cells): good cytotoxic activities

CC/C(=C(\c1ccccc1)c1ccc(OCCN(C)C)cc1)c1ccccc1 [tamoxifen]
IC50 at 24 h (in vitro): 22 µg/mL and 59.3 µM
